Test results reported in US6020363A, “Isocoumarin derivatives and use thereof in drugs” (Mercian Corporation, priority 1998, dated 2000).

Assays:
carrageenin edema = assay: Effect on Carrageenin Edema; assay type: in vivo, ICR mice; conditions: for Degree of edema (%): 2 h after carrageenin, mean ± SE, control 47.4 ± 2.8
Protocol: The effect on carrageenin edema was tested by using ICR mice in groups of 6-7. Specifically, Compound 3 was orally administered thereto in a dose of 3 or 30 mg/kg body weight. As a positive control drug, indomethacin was similarly administered in a dose of 20 mg/kg body weight. After 30 minutes, 25 μl of a 1% carrageenin solution was subcutaneously injected into the sole of the right hind leg. Two hours after the administration of carrageenin, the thickness of the sole was measured with digital vernier calipers, and the degree of edema (%) based on the thickness measured before administration was calculated.

5-lipoxygenase = assay: Effect on 5-lipoxygenase activity; assay type: biochemical, rats
Protocol: Moreover, its inhibitory effect on 5-lipoxygenase was tested according to the method of Egan et al. (Journal of Biological Chemistry, 260: 11554-11559, 1985). Specifically, an enzyme preparation derived from the basophilic leukemia cells (RBL-1) of rats was used. This enzyme preparation, together with 30 μM Compound 3, was incubated at room temperature for 5 minutes, followed by the addition of linolenic acid. Thereafter, this mixture was incubated at room temperature for 8 minutes. After the reaction was stopped by the addition of a sodium hydroxide solution, its absorbance was measured at 234 nm.

[1] = system: cyclooxygenase (or prostaglandin endoperoxide synthase); assay: Effect on cyclooxygenase activity; assay type: biochemical, sheep
Protocol: The inhibitory effect of Compound 3 on cyclooxygenase (or prostaglandin endoperoxide synthase) activity was tested according to the method of Evans et al. (Biochemical Pharmacology, 36: 2035-2037, 1987). Specifically, an enzyme preparation derived from the seminal vesicles of sheep was incubated at 27° C. for 1.5 minutes in the presence of 500 μM arachidonic acid and 300 μM Compound 3. After the reaction was stopped by adding trichloroacetic acid to the reaction mixture, its absorbance was measured at 532 nm.

**Q.** With COc1cc(O)c2c(=O)oc(C(C)C(=O)O)cc2c1 (stereo not shown) [Compound 3, 2-(8-hydroxy-6-methoxy-1-oxo-1H-2-benzopyran-3-yl)propionic Acid] as the compound, how does the “effect on carrageenin edema (in words)” value (carrageenin edema; doses of 3 and 30 mg/kg) read?
**A.** Its value is “no inhibitory effect on carrageenin edema”.

**Q.** And the “Degree of edema (%)” value (carrageenin edema; oral 3 mg/kg)?
**A.** The value was 41.7 ± 3.1%.

**Q.** What about the “Degree of edema (%)” value (carrageenin edema; oral 30 mg/kg) of the same compound?
**A.** The value was 46.1 ± 4.2%.

**Q.** What about the “Degree of inhibition (%), 5-Lipoxygenase” value (5-lipoxygenase; 30 μM Compound 3, n = 2) of the same compound?
**A.** The value was 21.0%.

**Q.** And the “inhibitory effect on lipoxygenase (in words)” value (5-lipoxygenase; 30 μM or 300 μM)?
**A.** Its value is “no inhibitory effect on cyclooxygenase or lipoxygenase”.

**Q.** And the “inhibitory effect on cyclooxygenase (in words)” value ([1]; 30 μM or 300 μM)?
**A.** The value was “no inhibitory effect on cyclooxygenase or lipoxygenase”.

**Q.** And the “Degree of inhibition (%), Cyclooxygenase” value ([1]; 300 μM Compound 3, 500 μM arachidonic acid, n = 2)?
**A.** Its value is -4.0%.
